Molecules are shown by their SMILES. Read-outs that look alike come from different tables or passages of the source.

The data set is described as follows: pharmacokinetic profile of EP 1572 after oral administration in healthy male subjects. The following applies: human, plasma EP 1572, oral, mean ± SEM; for AUC(0-t): read-out: AUC (0-300) (converted). Type of data set: in vivo. Here is the method:
After a provocative test with EP 1572, the pharmacokinetic profile of EP 1572 and the level of GH released in response to its oral administration were established in 36 healthy male subjects at various doses.
From the subject a blood sample was drawn at 30 and 15 minutes before the administration of EP 1572. A sample of blood was taken from the subject immediately before the aqueous formulation containing 0.5 mg/kg of EP 1572 was orally administered to the subject. Further blood samples were taken from the subject at 15, 30, 60, 90, 120, 150, 180, 210, 240, 270 and 300 minutes from administration and a portion of each sample processed according to the assay protocol outlined below. The level of GH present in each sample was determined by the assay method outlined below and the peak concentration (Cmax) for the subject determined. The remainder of the sample was used to determine the level of EP 1572 present in the systemic circulation (as outlined below).
The organic components in human plasma were extracted using a total of […] of an ethyl acetate/iso-propanol mixture (82.5% and 17.5%, respectively). […] Quantification was performed with EP 1573 as an internal standard (peak area ratio evaluation).
Further dosing studies were carried out wherein the subjects were administered doses of 0.005, 0.05, 0.25 and 0.125 mg/kg each, using the formulations described above.

In general, Cmax refers to the peak of the concentration-time curve. As usually defined, the Tmax is the time from dosing to the highest level. For `CC(C)(N)C(=O)N[C@H](Cc1c[nH]c2ccccc12)C(=O)N[C@H](Cc1c[nH]c2ccccc12)NC=O` [EP 1572, H-Aib-D-Trp-D-gTrp-CHO], the Cmax runs as follows: (0.05 mg/kg) 0.86 ± 0.24 ng/mL; (0.125 mg/kg) 2.33 ± 0.39 ng/mL; (0.25 mg/kg) 3.92 ± 0.57 ng/mL; (0.5 mg/kg) 7.59 ± 0.83 ng/mL. The Tmax is, setting by setting: (0.05 mg/kg) 75 min; (0.125 mg/kg) 62.5 min; (0.25 mg/kg) 55 min; (0.5 mg/kg) 50 min. Besides, the AUC(0-t) (0.05 mg/kg) was 1.74 ng·h/mL, the AUC(0-t) (0.125 mg/kg) was 5.35 ng·h/mL, the AUC(0-t) (0.25 mg/kg) is 8.67 ng·h/mL and the AUC(0-t) (0.5 mg/kg) was 16.1 ng·h/mL.
